“Also recorded” adds a separate entry of the source. Structures can show the parent of a compound that is named as a salt.
What was measured:
zebrafish [1] = assay: Social preference test in zebrafish, MK-801 model; type: in vivo, Danio rerio; conditions: for overall effect on all parameters of the social preference test: drug pretreatment, then water or MK-801 5 μM
Method: (§1) Here, the ability of alstonine salts to reverse schizophrenia-like symptoms produced by MK-801 in zebrafish was evaluated. The atypical antipsychotic olanzapine was used as a comparison.
(§2) Experiments were performed using male and female (50:50 ratio) short-fin wild-type zebrafish (4-month-old, 300-500 mg). Adult animals were obtained from a local commercial supplier (Delphis, R S, Brazil). The animals were maintained at Instituto de Ciências Básicas da Saúde in a light/dark cycle of 14/10 h with lights on at 7:00 a.m for at least two weeks before tests. Fish were kept in 40-L (30×46×33 cm) unenriched glass tanks with non-chlorinated water at a maximum density of five animals per liter. Tank water satisfied the controlled conditions required for zebrafish (26±2° C.; pH 7.0±0.3; dissolved oxygen at 7.0±0.4 mg/L; total ammonia at <0.01 mg/L; total hardness at 5.8 mg/L; alkalinity at 22 mg/L CaCO3; conductivity of 1,500-1,600 μS/cm) and was constantly filtered by mechanical, biological, and chemical filtration systems. Food was provided twice a day as commercial flake food (Poytara®, SP, Brazil) plus brine shrimp (Artemia salina). The sex of the animals was confirmed after euthanasia by dissecting and analyzing the gonads. For all experiments, no sex effects were observed, so data were pooled together. Animals were euthanized by hypothermic shock according to the AVMA Guidelines for the Euthanasia of Animals (Leary and Johnson, 2020).
(§3) MK-801 (dizocilpine) and sulpiride were purchased from Sigma-Aldrich (St. Louis, MO, USA); olanzapine was purchased from Selleck Chemicals. Alstonine hydrochloride, alstonine benzoate, and alstonine benzensulfonate were prepared as described herein. MK-801, olanzapine, and alstonine hydrochloride were dissolved in distilled water, with sonication in an ultrasonic bath for the latter. Sulpiride, alstonine benzoate, and alstonine benzensulfonate were dissolved in 100% DMSO; stock solutions were diluted to achieve a final DMSO concentration of 1% for the highest concentration. MK-801 solutions were freshly prepared, while alstonine stock solutions were kept refrigerated for up to five days. Exposure solutions were renovated halfway through the experiment, with a maximum of four fish exposed to the same solution.
(§4) Different sets of animals were used for each experiment, totaling 600 zebrafish in the study (plus 200 zebrafish serving as stimulus animals). Animals were individually exposed to water or alstonine solutions at 2.5, 5 or 10 mg/L in 500-mL beakers containing 200-mL solution for 20 min (n=15). These concentrations were extrapolated from mice studies. Fish were then transferred to another beaker containing either water or MK-801 at 5 μM and remained there for another 20 minutes.
(§5) The animals were allocated to the experimental groups following block randomization procedures to counterbalance for home tank, sex, and day of testing. The order for outcome assessment was also randomized and care was taken to counterbalance the test apparatuses across the experimental groups. Outcome assessors were blind to the experimental groups, as well as the experimenters responsible for taking the animal and placing it in the test apparatus.
The protocol for the social preference test in zebrafish followed the method described by Benvenutti et al. (2021). After exposure, animals were placed for 7 min in a tank (30×10×15 cm) flanked by two identical tanks (15×10×13 cm) either empty (neutral stimulus) or containing 10 unknown zebrafish (social stimulus). All three tanks were filled with water in standard conditions at a level of 10 cm. The position of the social stimulus (right or left) was counterbalanced throughout the tests. The water in the test tanks was changed between every animal. To assess social behavior, the test apparatus was virtually divided into three vertical zones (interaction, middle, and neutral). Animals were habituated to the apparatus for 2 min and then analyzed for the last 5 min. […]

zebrafish [2] = assay: Open tank test in zebrafish, MK-801 model; type: in vivo, Danio rerio; conditions: for overall effect on the analyzed parameters of the open tank test: drug pretreatment
Method: as §1, §2, §3, §4, §5
The protocol for the open tank test followed the method described by Benvenutti et al. (2021). Immediately after the social preference test, animals were placed in the center of the open tank arena and recorded for 10 min. The apparatus consisted of a white circular arena (24 cm in diameter and 8 cm in height, 2 cm water level). The apparatus format and the acquisition of videos from the top view allows the evaluation of locomotor parameters related to stereotypic behavior (circular movements and absolute turn angle). The water was changed between every animal. The following outcomes were automatically scored using ANY-Maze software (Stoelting Co., Wood Dale, IL, USA): total distance traveled, absolute turn angle, number of clockwise rotations, and immobility time. […]

dopamine (DA) uptake = conditions: mouse striatal synaptosomes; cited from earlier work
mice = conditions: 0.5-1.0 mg/kg ip; cited from earlier work
D1 = target: T1, D1 (Homo sapiens, UniProt P21728); conditions: cortex membranes; preliminary binding studies; cited from earlier work
T1 construct: host or cells: cortex membranes (tissue)
T1 sequence (P21728 whole entry): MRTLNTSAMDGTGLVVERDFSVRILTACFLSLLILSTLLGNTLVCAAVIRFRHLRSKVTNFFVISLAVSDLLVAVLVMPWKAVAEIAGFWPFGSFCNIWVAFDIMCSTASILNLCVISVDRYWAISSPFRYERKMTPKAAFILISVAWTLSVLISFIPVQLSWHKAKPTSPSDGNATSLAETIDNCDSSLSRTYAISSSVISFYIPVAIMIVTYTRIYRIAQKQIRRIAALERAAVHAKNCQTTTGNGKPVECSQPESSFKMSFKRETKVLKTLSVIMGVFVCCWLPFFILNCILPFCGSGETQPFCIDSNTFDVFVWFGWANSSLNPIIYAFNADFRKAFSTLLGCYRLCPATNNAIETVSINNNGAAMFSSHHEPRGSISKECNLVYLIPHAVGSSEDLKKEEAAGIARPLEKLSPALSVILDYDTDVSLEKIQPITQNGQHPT

D2, and 5-HT2A receptors = conditions: cortex membranes; preliminary binding studies; cited from earlier work
[3] = MK-801 5 μM vs control, experiment with olanzapine
[4] = MK-801 5 μM vs controls, experiment with sulpiride

## C[C@]12N[C@H](Cc3ccccc31)c1ccccc12 [MK-801, dizocilpine]
Zebrafish [1]; [3]
  number of crossings: increased
  time in the social interaction zone: spent less time in the social interaction zone
  total distance traveled: increased the total distance traveled
Zebrafish [1]; [4]
  immobility time: increased
  number of crossings: increased the number of crossings
Zebrafish [2]; main effect of MK-801 5 μM
  absolute turn angle: decreased
  clockwise rotations: decreased
  distance traveled: decreased the distance traveled
  immobility time: increased the immobility time

## COC(=O)C1=CO[C@@H](C)[C@@H]2Cn3ccc4c5ccccc5nc-4c3C[C@H]12 [Alstonine hydrochloride]
Zebrafish [1]
  overall effect on all parameters of the social preference test: potentiated the effects of MK-801 in the social preference test
Zebrafish [1]; fish exposed 20 min to drug, then 20 min to water or MK-801 5 μM, main effect of drug pretreatment, two-way ANOVA
  time in the zone of interaction: nonspecifically reduced the time in the zone of interaction at the intermediate and highest concentrations
Zebrafish [1]; interaction between drug pretreatment and MK-801 5 μM, Bonferroni post hoc
  number of crossings: potentiated the effect of MK-801 at the intermediate concentration

## COC(=O)C1=COC(C)C2C[n+]3ccc4c([nH]c5ccccc54)c3CC12.O=C([O-])c1ccccc1 (stereo not shown) [alstonine benzoate, Alstonine benzoate]
Zebrafish [1]
  overall effect on all parameters of the social preference test: devoid of statistically significant effects
Zebrafish [1]; interaction between drug pretreatment and MK-801 5 μM
  immobility time: trend for alstonine benzoate to prevent the effects of MK-801 on immobility time in the highest concentration tested

## COC(=O)C1=CO[C@@H](C)[C@@H]2Cn3ccc4c5ccccc5nc-4c3C[C@H]12 [alstonine]
Dopamine (DA) uptake
  DA uptake: increasing DA uptake
mice
  antipsychotic properties in mice models: shows antipsychotic properties
D1
  effect on [3H]SCH23390 binding: does not affect
D2, and 5-HT2A receptors
  effect on [3H]Spiperone binding: does not affect

## COC(=O)C1=COC(C)C2C[n+]3ccc4c([nH]c5ccccc54)c3CC12.O=S(=O)([O-])c1ccccc1 (stereo not shown) [alstonine benzensulfonate, Alstonine benzenesulfonate]
Zebrafish [1]
  overall effect on all parameters of the social preference test: devoid of statistically significant effects
Zebrafish [2]; drug pretreatment 20 min, then water or MK-801 5 μM, interaction with MK-801, post hoc
  immobility time: the intermediate and highest concentrations prevented the increase in immobility time induced by MK-801; also recorded: subgroup of animals that respond to alstonine benzensulfonate regarding immobility time to the level of controls
Zebrafish [2]; drug pretreatment 20 min, then water or MK-801 5 μM, main effect of drug
  distance traveled: trend for a main effect on total distance
Zebrafish [2]; drug pretreatment 20 min, then water or MK-801 5 μM, main effect or interaction with MK-801
  clockwise rotations: significant interaction; also recorded: preventing (at the highest concentrations) the effects of MK-801 on clockwise rotations
Zebrafish [2]; then water or MK-801 5 μM
  overall effect on the analyzed parameters of the open tank test: possess antipsychotic-like properties similar to olanzapine

## CCN1CCCC1CNC(=O)c1cc(S(N)(=O)=O)ccc1OC (stereo not shown) [Sulpiride, sulpiride]
Zebrafish [1]
  overall effect on all parameters of the social preference test: devoid of effects on all parameters
Zebrafish [2]; then water or MK-801 5 μM
  overall effect on the analyzed parameters of the open tank test: no significant effects on any of the analyzed parameters

— patent US20240425514A1, “ALSTONINE DERIVATIVES AND SALTS THEREOF” (priority 2021, published 2024)
